Among the data in patent US9168259B2 (GRÜNENTHAL GMBH, priority 2010, dated 2015) are Emax and EC50 values, retold here.

Read-outs that look alike come from different tables or passages of the source.

The assay has as its target T1, KCNQ2/3 channels (Homo sapiens, UniProt O43525+O43526).
T1 construct: expressed in transfected cells
The experiment in a line: Fluorescence assay using a voltage sensitive dye (fluorimetry). The settings on record: for EC50: IC50 where % efficacy is negative, read-out: Fluorimetry EC50/IC50. It is filed as cell-based. The source says:
Method I. Fluorescence Assay Using a Voltage Sensitive Dye (Fluorimetry)
These voltage-sensitive dyes are fluorescent dyes and, therefore, are forming the link between cell potential influenced by KCNQ modulation and fluorescence intensity. A KCNQ agonist leads to an opening of the channel, potassium and dye efflux, a following hyperpolarization and a reduction of the inner fluorescence intensity in a kinetic protocol. If applying an ion jump by KCl depolarization, KCNQ agonists increase the ΔF/F value. An antagonist performs vice versa, respectively.
Therefore, ‘fluorimetry EC50’ is a measure for the compound potency. The compound efficacy is mirrored by ‘fluorimetry % efficacy’ (‘% Efficacy’) and refers to the maximum response achievable by the test compound, i.e. the plateau effect. This drug's plateau effect is related to the plateau effect, which can be achieved by applying a saturated concentration of a reference compound, e.g. Retigabine (50 μM), in independent wells of the same experimental plate or series.
[…] CHO-K1 cells expressing KCNQ2/3 channels are cultivated adherently at 37° C., 5% CO2 and 95% humidity in cell culture bottles (e.g. 80 cm^2 TC flasks, Nunc) with DMEM-high glucose (Sigma Aldrich, D7777) including 10% FCS (PAN Biotech, e.g. 3302-P270521) or alternatively MEM Alpha Medium (1×, liquid, Invitrogen, #22571), 10% fetal calf serum (FCS) (Invitrogen, #10270-106, heat-inactivated) and the necessary selection antibiotics.
The cell number is determined using a CASY™ cell counter (TCC, Schärfe System). Depending on the optimal density for each individual cell line, 20,000-30,000 cells/well/100 μl are seeded onto 96-well Corning™ CellBIND™ assay plates (Flat Clear Bottom Black Polystyrene Microplates, #3340). Freshly seeded cells are then left to settle for one hour at room temperature, followed by incubation for 24 hours at 37° C., 5% CO2 and 95% humidity.
The voltage-sensitive fluorescent dye from the Membrane Potential Assay Kit (Red™ Bulk format part R8123 for FLIPR, MDS Analytical Technologies™) is prepared by dissolving the contents of one vessel Membrane Potential Assay Kit Red Component A in 200 ml of extracellular buffer (ES buffer, 120 mM NaCl, 1 mM KCl, 10 mM HEPES, 2 mM CaCl2, 2 mM MgCl2, 10 mM glucose; pH 7.4). After removal of the nutrient medium, the cells are washed once with 200 μl of ES buffer, then loaded for 45 min at room temperature in 100 μl of dye solution in the dark.
Fluorescence measurements are carried out in a BMG Labtech FLUOstar™, BMG Labtech NOVOstar™ or BMG Labtech POLARstar™ instrument (525 nm excitation, 560 nm emission, Bottom Read mode). After incubation with the dye, 50 μl of the test substances in the desired concentrations, or 50 μl of ES buffer for control purposes, are applied to the wells of the assay plate and incubated for 30 min at room temperature while being shielded from light. The fluorescence intensity of the dye is then measured for 5 min and the fluorescence value F1 of each well is thus determined at a given, constant time. 15 μl of a KCl solution are then added to each well (final concentration of potassium ions 92 mM). The change in fluorescence intensity is subsequently monitored until all the relevant values have been obtained (mainly 5-30 min). At a given time post KCl application, a fluorescence value F2 is determined, in this case at the time of the fluorescence peak.
For calculation, the fluorescence intensity F2 is corrected for the fluorescence intensity F1, and the activity (ΔF/F) of the target compound on the potassium channel is determined as follows:
In order to determine whether a substance has agonistic activity,
[formula] can be related to
[formula] of control wells.
[formula] is determined by adding to the well only the buffer solution instead of the test substance, determining the value F1K of the fluorescence intensity, adding the potassium ions as described above, and measuring a value F2K of the fluorescence intensity.

Setting [1] is: CHO-K1, plateau effect relative to saturated retigabine (50 μM) = 100%, CHO-K1 cells expressing KCNQ2/3, negative values = antagonistic, read-out: Fluorimetry % efficacy (retigabine = 100%).
Setting [2] is: CHO-K1 cells expressing KCNQ2/3.

T1 sequence (O43526 whole entry): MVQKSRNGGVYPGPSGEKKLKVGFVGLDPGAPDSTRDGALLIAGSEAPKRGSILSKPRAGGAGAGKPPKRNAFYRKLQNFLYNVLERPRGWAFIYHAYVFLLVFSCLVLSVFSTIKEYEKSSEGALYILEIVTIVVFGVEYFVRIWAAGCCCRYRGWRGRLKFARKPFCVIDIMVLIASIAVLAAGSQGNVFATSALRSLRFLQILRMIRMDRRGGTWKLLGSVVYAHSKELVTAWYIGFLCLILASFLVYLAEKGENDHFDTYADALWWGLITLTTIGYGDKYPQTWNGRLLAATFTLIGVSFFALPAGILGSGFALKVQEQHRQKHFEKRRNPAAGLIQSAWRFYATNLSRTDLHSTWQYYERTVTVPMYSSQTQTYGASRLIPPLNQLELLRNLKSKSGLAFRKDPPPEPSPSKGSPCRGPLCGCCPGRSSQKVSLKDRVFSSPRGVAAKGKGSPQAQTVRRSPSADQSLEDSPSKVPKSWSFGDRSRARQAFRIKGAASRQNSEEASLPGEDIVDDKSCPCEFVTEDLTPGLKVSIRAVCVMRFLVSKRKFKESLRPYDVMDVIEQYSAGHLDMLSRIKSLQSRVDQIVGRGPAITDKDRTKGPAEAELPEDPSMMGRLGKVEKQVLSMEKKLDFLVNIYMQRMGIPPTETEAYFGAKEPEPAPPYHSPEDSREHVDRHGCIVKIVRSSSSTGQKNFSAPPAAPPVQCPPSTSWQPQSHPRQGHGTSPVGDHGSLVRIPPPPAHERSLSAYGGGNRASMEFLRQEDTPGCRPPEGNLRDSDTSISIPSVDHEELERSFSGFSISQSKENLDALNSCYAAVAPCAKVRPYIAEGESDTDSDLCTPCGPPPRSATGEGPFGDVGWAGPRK
T1 sequence (O43525 whole entry): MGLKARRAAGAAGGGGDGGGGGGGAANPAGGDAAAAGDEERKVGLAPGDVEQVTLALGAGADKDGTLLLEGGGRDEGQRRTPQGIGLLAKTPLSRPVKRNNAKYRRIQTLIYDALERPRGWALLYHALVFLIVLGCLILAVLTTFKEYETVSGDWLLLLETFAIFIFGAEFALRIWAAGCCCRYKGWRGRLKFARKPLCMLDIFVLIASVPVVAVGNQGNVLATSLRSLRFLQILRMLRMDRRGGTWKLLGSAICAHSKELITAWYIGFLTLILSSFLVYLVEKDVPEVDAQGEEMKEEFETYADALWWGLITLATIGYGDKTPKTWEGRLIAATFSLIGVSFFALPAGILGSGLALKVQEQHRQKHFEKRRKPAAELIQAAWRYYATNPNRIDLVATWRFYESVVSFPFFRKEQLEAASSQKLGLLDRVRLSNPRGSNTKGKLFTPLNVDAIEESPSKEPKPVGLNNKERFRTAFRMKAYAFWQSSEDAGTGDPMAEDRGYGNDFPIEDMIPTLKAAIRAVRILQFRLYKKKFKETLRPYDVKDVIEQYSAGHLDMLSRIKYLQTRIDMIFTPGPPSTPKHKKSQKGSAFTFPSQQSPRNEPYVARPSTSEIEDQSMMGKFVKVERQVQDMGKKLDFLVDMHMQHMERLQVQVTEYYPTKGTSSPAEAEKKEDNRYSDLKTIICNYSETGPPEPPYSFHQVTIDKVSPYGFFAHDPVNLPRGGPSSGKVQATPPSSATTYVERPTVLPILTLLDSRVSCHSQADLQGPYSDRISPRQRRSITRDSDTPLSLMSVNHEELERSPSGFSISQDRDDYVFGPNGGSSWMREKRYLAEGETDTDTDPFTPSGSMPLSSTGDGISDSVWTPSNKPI

In the case of `CCSc1nc(N2CCOC(C)C2)cc(C)c1C(=O)NCc1cccc(F)c1` (racemic) [Example 48, 2-Ethylsulfanyl-N-[(3-fluorophenyl)-methyl]-4-methyl-6-(2-methyl-morpholin-4-yl)-pyridine-3-carboxylic acid amide], the Emax under setting [1] stood at 145%. The EC50 under setting [2] turned out to be 217 nM.

With `Cc1cc(N2CCOCC2)nc(C2CC2)c1C(=O)NCCC(O)C(C)(C)C` (racemic) [Example X1, 2-Cyclopropyl-N-(3-hydroxy-4,4-dimethyl-pentyl)-4-methyl-6-morpholin-4-yl-pyridine-3-carboxylic acid amide], the EC50 under setting [2] came to 529 nM.

`Cc1cc(N2CCOCC2)nc(C(C)C)c1C(=O)NCCC(O)C(C)(C)C` (racemic) [Example X5, N-(3-Hydroxy-4,4-dimethyl-pentyl)-2-isopropyl-4-methyl-6-morpholin-4-yl-pyridine-3-carboxylic acid amide]: the EC50 under setting [2] amounted to 156 nM. Turning to `Cc1cc(N2CCOCC2)nc(C(C)C)c1C(=O)NCCC(O)C(F)(F)F` (racemic) [Example X6, 2-Isopropyl-4-methyl-6-morpholin-4-yl-N-(4,4,4-trifluoro-3-hydroxy-butyl)-pyridine-3-carboxylic acid amide], the EC50 under setting [2] came to 1990 nM. Take `COc1nc(N2CCOCC2)cc(C)c1C(=O)NCc1cc(F)cc(F)c1` [Example 3, N-[(3,5-Difluoro-phenyl)-methyl]-2-methoxy-4-methyl-6-morpholin-4-yl-pyridine-3-carboxylic acid amide]: the Emax under setting [1] is 132%. The EC50 under setting [2] was 233 nM. Taken in the same sequence, the figures for `CCSc1nc(N(C)CC2CCCCO2)cc(C)c1C(=O)NCc1cccc(F)c1` (stereo not drawn) [Example 5, 2-Ethylsulfanyl-N-[(3-fluorophenyl)-methyl]-4-methyl-6-[methyl-(tetrahydro-pyran-2-yl-methyl)-amino]-pyridine-3-carboxylic acid amide] were 111% and 269 nM.

With `CCSc1nc(N2CC(OC)C2)cc(C)c1C(=O)NCc1cccc(F)c1` [Example 6, 2-Ethylsulfanyl-N-[(3-fluorophenyl)-methyl]-6-(3-methoxy-azetidin-1-yl)-4-methyl-pyridine-3-carboxylic acid amide], the Emax under setting [1] turned out to be 140%. In addition, under setting [2], the EC50 was 3870 nM. As for `CCSc1nc(N2CC(O)C2)cc(C)c1C(=O)NCc1cccc(F)c1` [Example 7, 2-Ethylsulfanyl-N-[(3-fluorophenyl)-methyl]-6-(3-hydroxy-azetidin-1-yl)-4-methyl-pyridine-3-carboxylic acid amide], the Emax under setting [1] turned out to be 44%. In the case of `C/C=C/c1nc(N2CCOCC2)cc(C)c1C(=O)NCc1cccc(F)c1` [Example 9, N-[(3-Fluorophenyl)-methyl]-4-methyl-6-morpholin-4-yl-2-[(E)-prop-1-enyl]pyridine-3-carboxylic acid amide], the Emax under setting [1] was determined as 174%. Further, under setting [2], the EC50 worked out at 740 nM.

As for `CCSc1nc(N2CCOCC2)cc(C(F)(F)F)c1C(=O)NCc1cccc(F)c1` [Example 11, 2-Ethylsulfanyl-N-[(3-fluorophenyl)-methyl]-6-morpholin-4-yl-4-(trifluoromethyl)-pyridine-3-carboxylic acid amide], the Emax under setting [1] amounted to 41%. Further, under setting [2], the EC50 was 175 nM. Taken in the same sequence, the figures for `Cc1cc(N2CCOCC2)nc(N2CCOCC2)c1C(=O)NCc1cccc(F)c1` [Example 12, N-[(3-Fluorophenyl)-methyl]-4-methyl-2,6-dimorpholin-4-yl-pyridine-3-carboxylic acid amide] were 210% and 2010 nM.

`CCSc1nc(N2CCC(C(=O)OC)CC2)cc(C)c1C(=O)NCc1cccc(F)c1` [Example 13]: under “CHO-K1, read-out: Fluorimetry % efficacy (retigabine = 100%)”, the Emax is 145%. Also, the EC50 under setting [2] was 1090 nM.

Regarding `CCSc1nc(N2CCC(C(=O)O)CC2)cc(C)c1C(=O)NCc1cccc(F)c1` [Example 14], the Emax under setting [1] was found to be 16%.
